Data published in US12612360B2 (Sanofi, priority 2020, dated 2026).
Structures can show the parent of a compound that is named as a salt.

Target: T1, ERα (Homo sapiens, UniProt P03372)
T1 construct: host or cells: MCF7
T1 sequence (P03372 1-595): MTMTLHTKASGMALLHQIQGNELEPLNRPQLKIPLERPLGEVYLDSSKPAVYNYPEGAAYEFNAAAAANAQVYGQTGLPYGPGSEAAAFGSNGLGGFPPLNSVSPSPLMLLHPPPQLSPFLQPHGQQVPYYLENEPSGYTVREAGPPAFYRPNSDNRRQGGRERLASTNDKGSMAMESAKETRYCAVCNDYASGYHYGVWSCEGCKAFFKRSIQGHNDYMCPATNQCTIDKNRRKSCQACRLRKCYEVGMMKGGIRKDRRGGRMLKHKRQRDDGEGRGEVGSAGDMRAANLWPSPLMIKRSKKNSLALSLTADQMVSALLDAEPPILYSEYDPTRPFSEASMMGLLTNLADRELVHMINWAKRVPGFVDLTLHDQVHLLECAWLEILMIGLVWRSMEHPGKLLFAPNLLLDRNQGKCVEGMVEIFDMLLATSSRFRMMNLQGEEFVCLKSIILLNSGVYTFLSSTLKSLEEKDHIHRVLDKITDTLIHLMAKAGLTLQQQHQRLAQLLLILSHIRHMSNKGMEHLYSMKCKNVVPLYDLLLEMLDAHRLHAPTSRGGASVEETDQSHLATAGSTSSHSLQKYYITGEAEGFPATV
Assay: Estrogen receptor degradation activity: breast cancer cell ERα in cell western assay (MCF7 cells)
Type: cell-based
Settings: for % Degradation At 0.3 μM: 4 hours, relative to fulvestrant 0.1 μM positive control; for DC50: 4 hours post compound addition, concentration which degrades 50% of the estrogen receptor, read-out: Degradation IC50
Outline: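 In-cell western readout: ERα immunofluorescence (Alexa 488) normalised to DNA signal (Syto-64) after formalin fixation. Compounds dosed for 4 h on MCF7 cells in stripped-serum, phenol-red-free medium over nine 1:5 steps, 0.3 to […] final; fulvestrant 0.1 μM control. IC50 in nM for 50% ERα degradation.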

% Degradation At 0.3 μM	DC50	Compound
93%	0.4 nM	Cl.O=C(O)c1ccc2c(c1)CCCC(c1ccc(Cl)cc1Cl)=C2c1ccc(C=C2CN(CCCF)C2)cc1F [Example 101, 8-(2,4-dichlorophenyl)-9-(2-fluoro-4-((1-(3-fluoropropyl)azetidin-3-ylidene)methyl)phenyl)-6,7-dihydro-5H-benzo[7]annulene-3-carboxylic acid hydrochloride]
93%	0.2 nM	Cc1cc(F)ccc1C1=C(c2ccc(C=C3CN(CCC(F)F)C3)cc2)c2ccc(C(=O)O)cc2CCC1 [Example 19, 9-(4-((1-(3,3-difluoropropyl)azetidin-3-ylidene)methyl)phenyl)-8-(4-fluoro-2-methylphenyl)-6,7-dihydro-5H-benzo[7]annulene-3-carboxylic acid]
93%	1.4 nM	O=C(O)c1ccc2c(c1)CCCC(c1cccc3c1CCC3(F)F)=C2c1ccc(C=C2CN(CCC(F)F)C2)cc1 [Example 164, 8-(1,1-difluoro-2,3-dihydro-1H-inden-4-yl)-9-(4-((1-(3,3-difluoropropyl)azetidin-3-ylidene)methyl)phenyl)-6,7-dihydro-5H-benzo[7]annulene-3-carboxylic acid]
93%	0.8 nM	Cc1cc(F)ccc1C1=C(c2cc(F)c(C=C3CN(CCCF)C3)cc2C)c2ccc(C(=O)O)cc2CCC1.Cl [Example 61, 8-(4-fluoro-2-methylphenyl)-9-(5-fluoro-4-((1-(3-fluoropropyl)azetidin-3-ylidene)methyl)-2-methylphenyl)-6,7-dihydro-5H-benzo[7]annulene-3-carboxylic acid hydrochloride]
93%	0.3 nM	Cc1cc(C2=C(c3ccc(Cl)cc3Cl)CCCc3cc(C(=O)O)ccc32)ccc1C=C1CN(CCCF)C1 [Example 64, 8-(2,4-dichlorophenyl)-9-(4-((1-(3-fluoropropyl)azetidin-3-ylidene)methyl)-3-methylphenyl)-6,7-dihydro-5H-benzo[7]annulene-3-carboxylic acid]
93%	1.1 nM	O=C(O)c1ccc2c(c1)CCCC(c1ccc(Cl)cc1C(F)(F)F)=C2c1ccc(C=C2CN(CCC(F)F)C2)cc1 [Example 128, 8-(4-chloro-2-(trifluoromethyl)phenyl)-9-(4-((1-(3,3-difluoropropyl)azetidin-3-ylidene)methyl)phenyl)-6,7-dihydro-5H-benzo[7]annulene-3-carboxylic acid]
96%	1.9 nM	O=C(O)c1ccc2c(c1)CCCC(c1ccc(F)c3c1CCC3)=C2c1ccc(C=C2CN(CCC(F)F)C2)cc1 [Example 165, 9-(4-((1-(3,3-difluoropropyl)azetidin-3-ylidene)methyl)phenyl)-8-(7-fluoro-2,3-dihydro-1H-inden-4-yl)-6,7-dihydro-5H-benzo[7]annulene-3-carboxylic acid]
91%	0.4 nM	O=C(O)c1ccc2c(c1)OCCC(c1ccc(Cl)cc1Cl)=C2c1ccc(C=C2CN(CCCF)C2)cc1 [Example 114, 4-(2,4-Dichlorophenyl)-5-(4-((1-(3-fluoropropyl)azetidin-3-ylidene)methyl)phenyl)-2,3-dihydrobenzo[b]oxepine-8-carboxylic acid hydrochloride]

Second part, the compound before the results:

Compound	% Degradation At 0.3 μM	DC50
CCc1cc(F)ccc1C1=C(c2ccc(C=C3CN(CCCF)C3)cc2)c2ccc(C(=O)O)cc2CCC1 [Example 96, 8-(2-ethyl-4-fluorophenyl)-9-(4-((1-(3-fluoropropyl)azetidin-3-ylidene)methyl)phenyl)-6,7-dihydro-5H-benzo[7]annulene-3-carboxylic acid]	98%	0.2 nM
O=C(O)c1ccc2c(c1)CCCC(C1CC3CCC(C3)C1)=C2c1ccc(C=C2CN(CCCF)C2)cc1 (centres unmarked) [Example 178, 8-(bicyclo[3.2.1]octan-3-yl)-9-(4-((1-(3-fluoropropyl)azetidin-3-ylidene)methyl)phenyl)-6,7-dihydro-5H-benzo[7]annulene-3-carboxylic acid]	95%	1.4 nM
O=C(O)c1ccc2c(c1)CCCC(c1cccc3c1CCC3(F)F)=C2c1ccc(C=C2CN(CCCF)C2)cc1 [Example 9, 8-(1,1-difluoro-2,3-dihydro-1H-inden-4-yl)-9-(4-((1-(3-fluoropropyl)azetidin-3-ylidene)methyl)phenyl)-6,7-dihydro-5H-benzo[7]annulene-3-carboxylic acid]	90%	0.6 nM
O=C(O)c1ccc2c(c1)CCCC(c1cccc(C(F)(F)F)c1Cl)=C2c1ccc(C=C2CN(CCC(F)F)C2)cc1 [Example 133, 8-(2-chloro-3-(trifluoromethyl)phenyl)-9-(4-((1-(3,3-difluoropropyl)azetidin-3-ylidene)methyl)phenyl)-6,7-dihydro-5H-benzo[7]annulene-3-carboxylic acid]	92%	1 nM
O=C(O)c1ccc2c(c1)CCCC(c1ccc(F)c3c1CCC3)=C2c1ccc(C=C2CN(CCCF)C2)cc1 [Example 12, 8-(7-fluoro-2,3-dihydro-1H-inden-4-yl)-9-(4-((1-(3-fluoropropyl)azetidin-3-ylidene)methyl)phenyl)-6,7-dihydro-5H-benzo[7]annulene-3-carboxylic acid]	93%	0.4 nM
O=C(O)c1ccc2c(c1)CCCC(c1cc(F)cc(C(F)(F)F)c1)=C2c1ccc(C=C2CN(CCCF)C2)cc1 [Example 155, 8-(3-fluoro-5-(trifluoromethyl)phenyl)-9-(4-((1-(3-fluoropropyl)azetidin-3-ylidene)methyl)phenyl)-6,7-dihydro-5H-benzo[7]annulene-3-carboxylic acid]	91%	0.3 nM
Cl.O=C(O)c1ccc2c(c1)CCCC(c1ccccc1C(F)(F)F)=C2c1ccc(C=C2CN(CCCF)C2)cc1 [Example 183, 9-(4-((1-(3-fluoropropyl)azetidin-3-ylidene)methyl)phenyl)-8-(2-(trifluoromethyl)phenyl)-6,7-dihydro-5H-benzo[7]annulene-3-carboxylic acid hydrochloride]	92%	0.4 nM
O=C(O)c1ccc2c(c1)CCCC(c1ccc3c(c1F)CCC3)=C2c1ccc(C=C2CN(CCCF)C2)cc1 [Example 7, 8-(4-fluoro-2,3-dihydro-1H-inden-5-yl)-9-(4-((1-(3-fluoropropyl)azetidin-3-ylidene)methyl)phenyl)-6,7-dihydro-5H-benzo[7]annulene-3-carboxylic acid]	90%	0.6 nM
Cl.O=C(O)c1ccc2c(c1)CCCC(c1ccc(Cl)cc1Cl)=C2c1cc(F)c(C=C2CN(CCCF)C2)cc1F [Example 92, 8-(2,4-dichlorophenyl)-9-(2,5-difluoro-4-((1-(3-fluoropropyl)azetidin-3-ylidene)methyl)phenyl)-6,7-dihydro-5H-benzo[7]annulene-3-carboxylic acid hydrochloride]	98%	0.3 nM
O=C(O)c1ccc2c(c1)CCCC(c1ccc(C(F)(F)F)cc1Cl)=C2c1ccc(C=C2CN(CCCF)C2)cc1 [Example 50, 8-(2-chloro-4-(trifluoromethyl)phenyl)-9-(4-((1-(3-fluoropropyl)azetidin-3-ylidene)methyl)phenyl)-6,7-dihydro-5H-benzo[7]annulene-3-carboxylic acid]	93%	0.1 nM
Cc1ccc(C2=C(c3ccc(C=C4CN(CCCF)C4)cc3)c3ccc(C(=O)O)cc3CCC2)c(Cl)c1 [Example 41, 8-(2-chloro-4-methylphenyl)-9-(4-((1-(3-fluoropropyl)azetidin-3-ylidene)methyl)phenyl)-6,7-dihydro-5H-benzo[7]annulene-3-carboxylic acid]	92%	0.2 nM
Cc1cc(C2=C(c3ccc(F)cc3C)CCCc3cc(C(=O)O)ccc32)ccc1C=C1CN(CCCF)C1.Cl [Example 44, 8-(4-fluoro-2-methylphenyl)-9-(4-((1-(3-fluoropropyl)azetidin-3-ylidene)methyl)-3-methylphenyl)-6,7-dihydro-5H-benzo[7]annulene-3-carboxylic acid hydrochloride]	91%	0.4 nM
O=C(O)c1ccc2c(c1)CCCC(c1ccc(Cl)cc1F)=C2c1ccc(C=C2CN(CCCF)C2)cc1 [Example 58, 8-(4-chloro-2-fluorophenyl)-9-(4-((1-(3-fluoropropyl)azetidin-3-ylidene)methyl)phenyl)-6,7-dihydro-5H-benzo[7]annulene-3-carboxylic acid]	99%	0.2 nM
O=C(O)c1ccc2c(c1)CCCC(C1CCOCC1)=C2c1ccc(C=C2CN(CCCF)C2)cc1 [Example 60, 9-(4-((1-(3-Fluoropropyl)azetidin-3-ylidene)methyl)phenyl)-8-(tetrahydro-2H-pyran-4-yl)-6,7-dihydro-5H-benzo[7]annulene-3-carboxylic acid]	91%	2.3 nM
